# Measured values: patent US20240182508A1, “AMPHIPATHIC COMPOUND, PREPARATION METHOD THEREFOR, AND SURFACTANT COMPOSITION COMPRISING SAME” (priority 2022, published 2024)
# Legend:
# [1] = Foaming properties (foam maintained on standing, measuring cylinder); assay type: physicochemical; settings: 10 mg in 5 ml distilled water, shaken 10 seconds
# Protocol: The foaming properties of steviol monoglycoside-ester obtained in Example 4 were confirmed. 5 ml of distilled water and 10 mg of steviol monoglycoside-ester obtained in Example 4 were mixed in a measuring cylinder to form micelles, then shaken for 10 seconds to generate foam, then allowed to stand at room temperature to compare the amount of foam.
# Thereby, it was confirmed that about 50% of the foam was maintained after 15 minutes and about 30% of the foam was maintained after 30 minutes, based on the height of the foam.
# [2] = CMC (critical micelle concentration) from surface tension by the stalagmometric method; assay type: physicochemical; settings: graph of surface tension versus sample concentration
# Protocol: The surface tension values of steviol bisglycoside (rebaudioside A) and steviol monoglycoside-acid, ester, and amide obtained in Examples 1, 4, and 5 were measured and compared at various concentrations using the stalagmometric method. In addition, through a graph of surface tension versus sample concentration, CMC was measured to be 5.14 mM (rebaudioside A), 1.1 mM (Example 1, steviolbioside), 0.15 mM (Example 4, rebaudioside B methyl ester), and 0.5 mM (Example 5, rebaudioside B n-hexylamide).
SMILES,"foam maintained, based on the height of the foam ([1]; after 15 minutes at room temperature)","foam maintained, based on the height of the foam ([1]; after 30 minutes at room temperature)",CMC [2] [mM]
"C=C1C[C@@]23CC[C@H]4[C@@](C)(CCC[C@@]4(C)C(=O)OC)[C@@H]2CC[C@]1(O[C@@H]1O[C@H](CO)[C@@H](O)[C@H](O[C@@H]2O[C@H](CO)[C@@H](O)[C@H](O)[C@H]2O)[C@H]1O[C@@H]1O[C@H](CO)[C@@H](O)[C@H](O)[C@H]1O)C3 [Example 4, rebaudioside B methyl ester]",about 50%,about 30%,0.15
"C=C1C[C@@]23CC[C@H]4[C@@](C)(CCC[C@@]4(C)C(=O)NCCCCCC)[C@@H]2CC[C@]1(O[C@@H]1O[C@H](CO)[C@@H](O)[C@H](O[C@@H]2O[C@H](CO)[C@@H](O)[C@H](O)[C@H]2O)[C@H]1O[C@@H]1O[C@H](CO)[C@@H](O)[C@H](O)[C@H]1O)C3 [Example 5, rebaudioside B n-hexylamide]",–,–,0.5
"C=C1C[C@@]23CC[C@H]4[C@@](C)(CCC[C@@]4(C)C(=O)O[C@@H]4O[C@H](CO)[C@@H](O)[C@H](O)[C@H]4O)[C@@H]2CC[C@]1(O[C@@H]1O[C@H](CO)[C@@H](O)[C@H](O[C@@H]2O[C@H](CO)[C@@H](O)[C@H](O)[C@H]2O)[C@H]1O[C@@H]1O[C@H](CO)[C@@H](O)[C@H](O)[C@H]1O)C3 [rebaudioside A, reference compound]",–,–,5.14
"C=C1C[C@@]23CC[C@H]4[C@@](C)(CCC[C@@]4(C)C(=O)O)[C@@H]2CC[C@]1(O[C@@H]1O[C@H](CO)[C@@H](O)[C@H](O)[C@H]1O[C@@H]1O[C@H](CO)[C@@H](O)[C@H](O)[C@H]1O)C3 [Example 1, steviolbioside]",–,–,1.1
